Assay results: US6552080B1, “Fungicidal compounds having a fluorovinyl-or fluoropropenyl-oxyphenyloxime moiety and process for the preparation thereof” (Korea Research Institute of Chemical Technology, priority 1999, dated 2003)
Where two headings read alike, the source gives them in different places.

Experiments:
Rhizoctonia solani AG-1 = assay: Fungicidal activity against Rice Sheath Blight (RSB) disease; settings: Rice Sheath Blight
[1] = test system: Pyricularia oryzae Carvara KA301; assay type: in vivo; settings: Rice Blast
Botrytis cinerae = assay: Fungicidal activity against Cucumber Gray Mold Rot (CGM) disease; assay type: in vivo; settings: Cucumber Gray Mold Rot; concentration 50 ppm
Protocol: Botrytis cinerae, which was isolated from cucumber infected thereby, was inoculated on a PDA agar medium and cultured under a 12L/12D cycle at 25° C. for 15 days to form spore. The spores were scraped, filtered through a gauze and then suspended in potato dextrose liquid medium at a concentration of 1×10^6 spore/ml. The spore suspension was sprayed on a cucumber plant having one leaf. The cucumber plant was held in a humidified room at 20° C. for 3 days. L.A. on a leaf was measured to calculate an C.V.

Phytophthora infestans = assay type: in vivo; settings: Tomato Late Blight
Puccinia recondita = assay: Fungicidal activity against Wheat Leaf Rust (WLR) disease; assay type: in vivo; settings: Wheat Leaf Rust
Erysiphae graminis = assay: Fungicidal activity against Barley Powdery Mildew (BPM) disease; assay type: in vivo; settings: Barley Powdery Mildew

Structure (SMILES)	RSB (Fungicidal Activities, C.V.) (Rhizoctonia solani AG-1; concentration 50 ppm)	RCV (Fungicidal Activities, C.V.) ([1]; concentration 2 ppm)	RCV (Fungicidal Activities, C.V.) ([1]; concentration 10 ppm)	RCV (Fungicidal Activities, C.V.) ([1]; concentration 50 ppm)	CGM (Fungicidal Activities, C.V.) (Botrytis cinerae)	TLB (Fungicidal Activities, C.V.) (Phytophthora infestans; concentration 50 ppm)	WLR (Fungicidal Activities, C.V.) (Puccinia recondita; concentration 2 ppm)	WLR (Fungicidal Activities, C.V.) (Puccinia recondita; concentration 10 ppm)	WLR (Fungicidal Activities, C.V.) (Puccinia recondita; concentration 50 ppm)	BPM (Fungicidal Activities, C.V.) (Erysiphae graminis; concentration 2 ppm)	BPM (Fungicidal Activities, C.V.) (Erysiphae graminis; concentration 10 ppm)	BPM (Fungicidal Activities, C.V.) (Erysiphae graminis; concentration 50 ppm)	RSB (Fungicidal Activities, C.V.) (Rhizoctonia solani AG-1; concentration 2 ppm)	RSB (Fungicidal Activities, C.V.) (Rhizoctonia solani AG-1; concentration 10 ppm)	TLB (Fungicidal Activities, C.V.) (Phytophthora infestans; concentration 2 ppm)
CO/C=C(/C(=O)OC)c1ccccc1CON=Cc1cccc(OC(F)=Cc2ccccc2)c1 [Compound 1]	65%	71%	86%	100%	69%	12%	96%	100%	100%	99%	100%	100%	–	–	–
COC=C(C(=O)OC)c1ccccc1CON=Cc1cccc(OC(F)=Cc2cccc(C)c2)c1 [Compound 2]	60%	33%	86%	93%	17%	85%	97%	100%	100%	98%	99%	100%	–	–	–
COC=C(C(=O)OC)c1ccccc1CON=Cc1cccc(OC(F)=Cc2ccc(C)cc2)c1 [Compound 3]	60%	0%	80%	100%	46%	84%	96%	98%	100%	86%	99%	100%	–	–	–
COC=C(C(=O)OC)c1ccccc1CON=Cc1cccc(OC(F)=Cc2cc(C)cc(C)c2)c1 [Compound 5]	55%	–	–	41%	17%	28%	96%	100%	100%	98%	100%	100%	–	–	–
CCc1ccc(C=C(F)Oc2cccc(C=NOCc3ccccc3C(=COC)C(=O)OC)c2)cc1 [Compound 6]	75%	8%	58%	99%	44%	33%	98%	100%	100%	97%	99%	100%	–	–	–
COC=C(C(=O)OC)c1ccccc1CON=Cc1cccc(OC(F)=Cc2ccc(OC)cc2)c1 [Compound 9]	50%	8%	83%	100%	53%	12%	95%	98%	100%	55%	99%	100%	–	–	–
COC=C(C(=O)OC)c1ccccc1CON=Cc1cccc(OC(F)=Cc2cccc(F)c2)c1 [Compound 11]	40%	33%	86%	100%	17%	85%	97%	100%	100%	98%	99%	100%	–	–	–
COC=C(C(=O)OC)c1ccccc1CON=Cc1cccc(OC(F)=Cc2ccc(F)cc2)c1 [Compound 12]	70%	33%	93%	98%	52%	83%	100%	100%	100%	98%	100%	100%	–	–	–
COC=C(C(=O)OC)c1ccccc1CON=Cc1cccc(OC(F)=Cc2cccc(Cl)c2)c1 [Compound 13]	70%	41%	86%	93%	36%	46%	99%	100%	100%	99%	100%	100%	–	–	–
COC=C(C(=O)OC)c1ccccc1CON=Cc1cccc(OC(F)=Cc2ccc(Cl)cc2)c1 [Compound 14]	75%	58%	86%	100%	7%	12%	96%	99%	100%	99%	100%	100%	–	–	–
CON=C(C(=O)OC)c1ccccc1CON=Cc1cccc(OC(F)=Cc2ccccc2)c1 [Compound 24]	95%	28%	88%	97%	50%	33%	95%	97%	99%	95%	100%	100%	44%	72%	–
CON=C(C(=O)OC)c1ccccc1CON=Cc1cccc(OC(F)=Cc2ccc(C)cc2)c1 [Compound 25]	40%	66%	–	98%	9%	99%	95%	–	100%	93%	–	100%	15%	–	75%
CON=C(C(=O)OC)c1ccccc1CON=Cc1cccc(OC(F)=Cc2ccc(OC)cc2)c1 [Compound 26]	77%	–	–	95%	77%	90%	–	–	93%	–	–	100%	–	–	–
